Assay results as given in patent US9834542B2, “LXR modulators” (BRISTOL-MYERS SQUIBB COMPANY, priority 2013, dated 2017).

Target: T1, LXRβ (Homo sapiens, UniProt P55055)
T1 construct: Co-transfection expression plasmids, comprising full-length LXRα (pCMX-h LXRα[…] or LXRβ (pCMX-hLXRβ)); expressed in transfected cells; host or cells: CV-1 African Green Monkey Kidney Cells
T1 sequence (P55055 1-460): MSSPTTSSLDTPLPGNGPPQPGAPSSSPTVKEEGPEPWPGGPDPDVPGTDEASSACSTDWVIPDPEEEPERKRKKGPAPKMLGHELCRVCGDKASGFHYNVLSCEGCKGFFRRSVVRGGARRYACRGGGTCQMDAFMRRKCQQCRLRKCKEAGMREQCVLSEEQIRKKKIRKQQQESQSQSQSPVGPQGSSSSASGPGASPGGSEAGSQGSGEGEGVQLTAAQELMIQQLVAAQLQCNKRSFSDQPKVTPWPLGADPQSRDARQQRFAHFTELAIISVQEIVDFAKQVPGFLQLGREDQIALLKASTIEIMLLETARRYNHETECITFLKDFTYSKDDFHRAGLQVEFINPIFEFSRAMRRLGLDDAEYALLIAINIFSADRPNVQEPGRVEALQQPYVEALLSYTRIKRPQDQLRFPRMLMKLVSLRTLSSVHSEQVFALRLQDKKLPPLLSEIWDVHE
T1 sequence (P19793 1-462 partner): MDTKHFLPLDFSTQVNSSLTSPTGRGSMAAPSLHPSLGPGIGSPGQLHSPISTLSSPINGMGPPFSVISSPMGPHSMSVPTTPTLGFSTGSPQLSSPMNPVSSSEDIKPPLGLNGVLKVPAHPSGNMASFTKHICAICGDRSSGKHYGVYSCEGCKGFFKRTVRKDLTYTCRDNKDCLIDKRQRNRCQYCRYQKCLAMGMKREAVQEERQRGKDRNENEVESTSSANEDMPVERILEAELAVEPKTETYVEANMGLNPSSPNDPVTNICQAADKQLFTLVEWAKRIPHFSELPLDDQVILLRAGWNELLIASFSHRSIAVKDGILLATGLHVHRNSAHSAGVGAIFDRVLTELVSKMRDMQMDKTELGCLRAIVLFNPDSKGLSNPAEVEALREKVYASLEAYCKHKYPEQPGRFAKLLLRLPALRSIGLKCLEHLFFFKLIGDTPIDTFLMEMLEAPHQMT
Assay: Co-transfection assay (LXRE luciferase reporter), LXRβ
Assay type: cell-based
Settings: for EC50: CV-1 cells transfected with pCMX-hLXRβ and LXREx1-Tk-Luciferase, 20 hours incubation; for Emax: LXRβ co-transfection, relative to high control 1-(2,4-difluorobenzyl)-2-oxo-6-(4-phenoxyphenyl)-4-(trifluoromethyl)-1,2-dihydropyridine-3-carbonitrile, read-out: % Efficacy
Method in brief: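 CV-1 cells transiently co-transfected with full-length human LXRβ (or LXRα), LXREx1-Tk-luciferase reporter and β-galactosidase control; compound added (10 μM final in single-point, 11-point ½-log curves, ≤0.5% DMSO) for 20 h at 37 °C. Luciferase read; EC50 from four-parameter fit, efficacy relative to reference agonist high control.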

Structure (SMILES) | EC50 [nM] | Emax [%]
Cc1nc(-c2cc(-c3cccc(S(C)(=O)=O)c3)ccc2-n2cc(C(F)(F)F)nc2C)c(-c2ccc(OC(F)(F)C(F)(F)F)cc2)o1 [Example 572, 2-methyl-4-(4-(2-methyl-4-(trifluoromethyl)-1H-imidazol-1-yl)-3′-(methylsulfonyl)-[1,1′-biphenyl]-3-yl)-5-(4-(perfluoroethoxy)phenyl)oxazole] | 95 | 46
Cc1nc(C(F)(F)F)cn1-c1ccc(-c2cccc(S(C)(=O)=O)c2)cc1-n1nncc1-c1ccc(N2CCCC2)cc1 [Example 51, 1-{3′-(methylsulfonyl)-4-[2-methyl-4-(trifluoromethyl)-1H-imidazol-1-yl]biphenyl-3-yl}-5-(4-pyrrolidin-1-ylphenyl)-1H-1,2,3-triazole] | 158 | 107
COc1ccc(-c2cnnn2-c2cc(-c3cccc(S(C)(=O)=O)c3)ccc2-n2cc(C(F)(F)F)nc2C)cc1C(F)(F)F [Example 74, 5-[4-(methyloxy)-3-(trifluoromethyl)phenyl]-1-{3′-(methylsulfonyl)-4-[2-methyl-4-(trifluoromethyl)-1H-imidazol-1-yl]biphenyl-3-yl}-1H-1,2,3-triazole] | 488 | 72
Cc1nc(C(F)(F)F)cn1-c1ccc(-c2ccc(CNS(C)(=O)=O)c(S(C)(=O)=O)c2)cc1-n1nncc1-c1ccc(OC(F)(F)F)cc1 [Example 87, N-{[3-(methylsulfonyl)-4′-[2-methyl-4-(trifluoromethyl)-1H-imidazol-1-yl]-3′-(5-{4-[(trifluoromethyl)oxy]phenyl}-1H-1,2,3-triazol-1-yl)biphenyl-4-yl]methyl}methanesulfonamide] | 662 | 89
Cc1nc(C(F)(F)F)cn1-c1ccc(-c2cc(F)c(CO)c(S(C)(=O)=O)c2)cc1-c1nc(CC(C)C)oc1-c1ccc(OC(F)(F)F)cc1 [Example 561, (3-fluoro-3′-(2-isobutyl-5-(4-(trifluoromethoxy)phenyl)oxazol-4-yl)-4′-(2-methyl-4-(trifluoromethyl)-1H-imidazol-1-yl)-5-(methylsulfonyl)-[1,1′-biphenyl]-4-yl)methanol] | 13 | 71
Cc1nc(-c2cc(-c3cccc(C(=O)N(C)C)c3)ccc2-n2cc(C(F)(F)F)nc2C)c(-c2ccc3c(c2)OC(F)(F)O3)o1 [Example 418, 3′-(5-(2,2-difluorobenzo[d][1,3]dioxol-5-yl)-2-methyloxazol-4-yl)-N,N-dimethyl-4′-(2-methyl-4-(trifluoromethyl)-1H-imidazol-1-yl)biphenyl-3-carboxamide] | 740 | 73

The remaining molecules from weak to strong by EC50, led by results:

EC50 [nM] | Emax [%] | Structure (SMILES)
1640 | 93 | Cc1nc(C(F)F)cn1-c1ccc(-c2cccc(C(C)(C)C(N)=O)c2)cc1-n1nncc1-c1ccc(OC(F)(F)F)cc1 [Example 156, 2-{4′-[4-(difluoromethyl)-2-methyl-1H-imidazol-1-yl]-3′-(5-{4-[(trifluoromethyl)oxy]phenyl}-1H-1,2,3-triazol-1-yl)biphenyl-3-yl}-2-methylpropanamide]
1160 | 62 | Cc1nc(C(F)(F)F)cn1-c1ccc(-c2ccc(CO)c(S(C)(=O)=O)c2)cc1-c1oc(CCO)nc1-c1ccc(OC(F)(F)F)cc1 [Example 613, 2-(5-(4′-(hydroxymethyl)-4-(2-methyl-4-(trifluoromethyl)-1H-imidazol-1-yl)-3′-(methylsulfonyl)-[1,1′-biphenyl]-3-yl)-4-(4-(trifluoromethoxy)phenyl)oxazol-2-yl)ethanol]
512 | 90 | COc1ccc(-c2cnnn2-c2cc(-c3cccc(S(C)(=O)=O)c3)ccc2-n2cc(C(F)(F)F)nc2C)c(C)c1 [Example 24, 5-[2-methyl-4-(methyloxy)phenyl]-1-{3′-(methylsulfonyl)-4-[2-methyl-4-(trifluoromethyl)-1H-imidazol-1-yl]biphenyl-3-yl}-1H-1,2,3-triazole]
